In patent US4515793A, “Phenylpiperazines which are useful in the treatment of schistosomiasis” (Edna McConnell Clark Foundation, priority 1983, dated 1985) one finds inhibition in vivo data, which are given here for 38 compounds.

This assay relates to S. mansoni. Kind of assay: antischistosomal activity in mice (live worm burden, single oral dose). The following applies: Schistosoma mansoni, single oral dose, read-out: % Reduction Live Worm Burden; for inhibition in vivo at 40 mg/kg / inhibition in vivo at 125 mg/kg / inhibition in vivo at 20 mg/kg: mice. The class given is in vivo, S. mansoni (host: CD1 white female mice). The procedure:
Tests were conducted to determine the antischistosomal activity in mice and monkeys. The results of the mice tests are reported in Tables 1 to 4 along with the chemical identifications of the compounds synthesized and tested.
The mice tests were conducted as follows:
A. Preinfection Procedures: Purina Laboratory chow (Ralston-Purina) and water were given ad libitum. All mice were housed in hanging stainless steel cages, without bedding, five per cage. They were kept in a ward with an ambient temperature of 75° F. and a relative humidity of 50-55%. Therapeutic treatment was given on Day 40 post-infection.
B. Experimental Procedures: CD1 white female mice were exposed by the tail immersion method for 30 minutes to 80 individually counted S. mansoni cercariae (WRAIR laboratory strain). The cercariae were obtained from pools of no less than 25 Biophalaria glabrata snails. Each experiment consisted of 118 mice divided into infected/water treated and infected/vehicle-treated controls, and infected/drug-treated groups (two dose levels) for six compounds. Groups of 12 mice each were treated with a compound synthesized and provided by the Warner-Lambert Company, Ann Arbor, Mich. at two dose levels. At the same time, five mice were sacrificed to establish worm burdens as infection controls. Three weeks after treatment, all remaining mice were sacrificed and perfused. Gross pathology (liver and intestines) was noted and graded (0 to +3). Worm burdens were determined and the sex of the worms recorded. Following perfusions the liver and intestines were removed and examined for the presence of […] or dead worms. […] Drugs were administered orally in Emulphor EL.
C. Drug Treatment: Treatment consisted of a single oral dose. Each drug was give initially at two dose levels, 40 mg/kg and 125 mg/kg, SID×1.
D. Criteria Used to Evaluate Therapeutic Effectiveness:
Evaluation of activity was determined by examination of the animals at 23 to 28 days after treatment. The schistosomes remaining alive after treatment were counted in the perfusates of the hepatic portal system and in press preparation of the livers. In the same preparations, the relative numbers of dead and/or encapsulated (i.e., worms may or may not be dead) parasites and the relative degree of pathology were ascertained. The efficacy of each treatment was that percentage of the control infection represented by the difference between numbers of parasites recovered from control (H2 O+vehicle) and treated animals. Thus, % efficacy is: [formula]

Where [1] appears, read: mice (footnote, 125 mg/kg column).

SMILES strings stand for the structures.

On to `CC(C)(C)c1ccc(C(=O)CN2CCN(c3ccc(CO)c(Cl)c3)CC2)cc1` [compound 11], for which the inhibition in vivo at 40 mg/kg was determined as 16%. The inhibition in vivo at 160 mg/kg under setting [1] worked out at 59%.
As to `O=C(CN1CCN(c2ccc(CO)c(Cl)c2)CC1)c1ccc(S(=O)(=O)N2CCCCC2)cc1` [Cpd. 4], the inhibition in vivo at 40 mg/kg is -10% and the inhibition in vivo at 125 mg/kg was 66%.
Take `CSc1ccc(C(=O)CCN2CCN(c3ccc(CO)c(Cl)c3)CC2)cc1` [Cpd. 31]: the inhibition in vivo at 40 mg/kg is 73% and the inhibition in vivo at 125 mg/kg stood at 93%.
Taken in the same sequence, the figures for `O=C(CN1CCN(c2ccc(CO)c(Cl)c2)CC1)c1ccc(C(=O)Oc2ccccc2)cc1` [compound 7] were -20% and 0%.
Turning to `O=C(CN1CCN(c2ccc(CO)c(Cl)c2)CC1)c1cccc2ccccc12` [compound 24], the inhibition in vivo at 40 mg/kg stood at 3% and the inhibition in vivo at 125 mg/kg stood at 64%.
As to `O=C(CN1CCN(c2ccc(CO)c(Cl)c2)CC1)c1ccsc1` [compound 51], the inhibition in vivo at 40 mg/kg was -6% and the inhibition in vivo at 125 mg/kg worked out at 83%.
As to `CC(O)(CN1CCN(c2ccc(CO)c(Cl)c2)CC1)c1ccc(Cl)cc1` (stereo not shown) [Cpd. 61], the inhibition in vivo at 20 mg/kg was 68%, the inhibition in vivo at 40 mg/kg amounted to 88% and the inhibition in vivo at 125 mg/kg came to 96%.
Turning to `CS(=O)(=O)c1ccc(C(=O)CCN2CCN(c3ccc(CO)c(Cl)c3)CC2)cc1` [Cpd. 32], the inhibition in vivo at 20 mg/kg amounted to 43%, the inhibition in vivo at 40 mg/kg amounted to 84% and the inhibition in vivo at 125 mg/kg amounted to 91%.
Take `O=C(CN1CCN(c2ccc(CO)c(Cl)c2)CC1)c1cccc(Cl)c1` [compound 27]: the inhibition in vivo at 40 mg/kg was 64% and the inhibition in vivo at 125 mg/kg stood at 83%.
For the compound `Nc1cccc(C(=O)CN2CCN(c3ccc(CO)c(Cl)c3)CC2)c1` [Cpd. 25, 2-[4-[3-Chloro-4-(hydroxymethyl)phenyl]-1-piperazinyl]-1-(3-aminophenyl)-ethanone], the inhibition in vivo at 40 mg/kg was -11% and the inhibition in vivo at 125 mg/kg was found to be 46%.
For `O=C(CN1CCN(c2ccc(CO)c(Cl)c2)CC1)c1ccc2sc3ccccc3c2c1` [compound 56] the same measures were 51% and 77%.
With `O=C(CN1CCN(c2ccc(CO)c(Cl)c2)CC1)c1ccc(F)cc1` [Cpd. 2], the inhibition in vivo at 40 mg/kg came to 19% and the inhibition in vivo at 125 mg/kg was 61%.
Take `O=C(CN1CCN(c2ccc(CO)c(Cl)c2)CC1)c1ccco1` [compound 46]: the inhibition in vivo at 50 mg/kg (50 mg/kg, mice (footnote, 40 mg/kg)) was 31%. In addition, the inhibition in vivo at 156 mg/kg (156 mg/kg, mice (footnote, 125 mg/kg column)) is 83%.
On to `O=C(CN1CCN(c2ccc(CO)c(Cl)c2)CC1)c1ccc(Cl)cc1` [Cpd. 1], for which the inhibition in vivo at 40 mg/kg amounted to 42% and the inhibition in vivo at 125 mg/kg was 67%.
With `O=C(CN1CCN(c2ccc(CO)c(Cl)c2)CC1)c1ccc(Cl)cc1O` [compound 18], the inhibition in vivo at 40 mg/kg turned out to be 5%. Also, under setting [1], the inhibition in vivo at 160 mg/kg was 26%.
For `O=C(CN1CCN(c2ccc(CO)c(Cl)c2)CC1)c1ccc(Cl)cc1Cl` [Cpd. 3], the inhibition in vivo at 20 mg/kg was determined as 62%, the inhibition in vivo at 40 mg/kg turned out to be 81% and the inhibition in vivo at 125 mg/kg amounted to 94%.
For `O=C(CN1CCN(c2ccc(CO)c(Cl)c2)CC1)c1ccc([N+](=O)[O-])cc1` [Cpd. 5], the inhibition in vivo at 40 mg/kg came to 74% and the inhibition in vivo at 125 mg/kg is 98%.
As to `O=C(CN1CCN(c2ccc(CO)c(Cl)c2)CC1)c1cc(Cl)sc1Cl` [compound 54], the inhibition in vivo at 40 mg/kg was 69% and the inhibition in vivo at 125 mg/kg was determined as 83%.
Take `C[S+]([O-])c1ccc(C(=O)CCN2CCN(c3ccc(CO)c(Cl)c3)CC2)cc1` (stereo not shown) [compound 38]: the inhibition in vivo at 40 mg/kg was 73% and the inhibition in vivo at 125 mg/kg was found to be 91%.
Regarding `O=C(CCCN1CCN(c2ccc(CO)c(Cl)c2)CC1)c1cccs1` [Cpd. 58, 4-[4-[3-Chloro-4-(hydroxymethyl)phenyl]-1-piperazinyl]-1-(2-thienyl)-1-butanone], the inhibition in vivo at 40 mg/kg amounted to 20% and the inhibition in vivo at 125 mg/kg is 77%.
Regarding `O=C(CCN1CCN(c2ccc(CO)c(Cl)c2)CC1)c1ccc(C2CCCCC2)cc1` [compound 33], the inhibition in vivo at 40 mg/kg was 79% and the inhibition in vivo at 125 mg/kg was 93%.
As for `Cc1cc(C)c(C(=O)CN2CCN(c3ccc(CO)c(Cl)c3)CC2)cc1C` [compound 17], the inhibition in vivo at 40 mg/kg came to 29%. The inhibition in vivo at 160 mg/kg under setting [1] was 71%.
Regarding `O=C(CCN1CCN(c2ccc(CO)c(Cl)c2)CC1)c1ccc(Cl)c(Cl)c1Cl` [compound 41], the inhibition in vivo at 20 mg/kg was determined as 82%, the inhibition in vivo at 40 mg/kg worked out at 83% and the inhibition in vivo at 125 mg/kg came to 96%.
Consider `Cc1ccsc1C(=O)CN1CCN(c2ccc(CO)c(Cl)c2)CC1` [compound 50], for which the inhibition in vivo at 40 mg/kg is -12% and the inhibition in vivo at 125 mg/kg was 28%.
For `COc1ccc(C(=O)CN2CCN(c3ccc(CO)c(Cl)c3)CC2)c(OC)c1OC` [compound 9] the same measures were 13% and 30%.
`Cc1ccc(C(=O)CCCN2CCN(c3ccc(CO)c(Cl)c3)CC2)cc1C` [compound 60]: the inhibition in vivo at 40 mg/kg turned out to be 67% and the inhibition in vivo at 125 mg/kg stood at 88%.
Turning to `N#Cc1ccc(C(=O)CN2CCN(c3ccc(CO)c(Cl)c3)CC2)cc1` [compound 23], the inhibition in vivo at 40 mg/kg was 40% and the inhibition in vivo at 125 mg/kg turned out to be 90%.
Regarding `O=C(CN1CCN(c2ccc(CO)c(Cl)c2)CC1)c1cccs1` [compound 45], the inhibition in vivo at 40 mg/kg was 10% and the inhibition in vivo at 125 mg/kg is 68%.
For `O=C(CN1CCN(c2ccc(CO)c(Cl)c2)CC1)c1cc(Cl)cc(Cl)c1` [compound 16], the inhibition in vivo at 40 mg/kg was determined as 64% and the inhibition in vivo at 125 mg/kg came to 89%.
`Cc1csc(C(=O)CN2CCN(c3ccc(CO)c(Cl)c3)CC2)c1` [compound 52]: the inhibition in vivo at 40 mg/kg turned out to be 25% and the inhibition in vivo at 125 mg/kg turned out to be 69%.
On to `O=C(CN1CCN(c2ccc(CO)c(Cl)c2)CC1)c1cc(Cl)c(Cl)cc1Cl` [compound 13], for which the inhibition in vivo at 20 mg/kg is 53%, the inhibition in vivo at 40 mg/kg amounted to 86% and the inhibition in vivo at 125 mg/kg turned out to be 98%.
As for `COc1ccc(C(=O)CCN2CCN(c3ccc(CO)c(Cl)c3)CC2)cc1` [compound 34], the inhibition in vivo at 40 mg/kg stood at 39% and the inhibition in vivo at 125 mg/kg worked out at 93%.
In the case of `O=C(CN1CCN(c2ccc(CO)c(Cl)c2)CC1)c1ccc2ccccc2c1` [compound 19], the inhibition in vivo at 40 mg/kg is -37% and the inhibition in vivo at 125 mg/kg was determined as 17%.
On to `O=C(CN1CCN(c2ccc(CO)c(Cl)c2)CC1)c1ccc(I)cc1` [Cpd. 6], for which the inhibition in vivo at 40 mg/kg is 62% and the inhibition in vivo at 125 mg/kg was determined as 83%.
For `O=C(CN1CCN(c2ccc(CO)c(Cl)c2)CC1)c1cc(Cl)ccc1Cl` [compound 20], the inhibition in vivo at 20 mg/kg was 72% and the inhibition in vivo at 40 mg/kg was 65%. Besides, under setting [1], the inhibition in vivo at 160 mg/kg worked out at 99%.
On to `O=C(CCN1CCN(c2ccc(CO)c(Cl)c2)CC1)c1ccc(-c2ccccc2)cc1` [compound 44], for which the inhibition in vivo at 20 mg/kg is 69%, the inhibition in vivo at 40 mg/kg came out at 89% and the inhibition in vivo at 125 mg/kg was 97%.
On to `Nc1cc(C(=O)CCN2CCN(c3ccc(CO)c(Cl)c3)CC2)ccc1Cl` [Cpd. 37], for which the inhibition in vivo at 20 mg/kg came out at 81%, the inhibition in vivo at 40 mg/kg was 83% and the inhibition in vivo at 125 mg/kg was determined as 95%.
For the compound `O=C(CCN1CCN(c2ccc(CO)c(Cl)c2)CC1)c1ccc(F)cc1F` [compound 40], the inhibition in vivo at 20 mg/kg was determined as 71%, the inhibition in vivo at 40 mg/kg worked out at 86% and the inhibition in vivo at 125 mg/kg amounted to 99%.
